Test systems include 786-0 renal; A549 NSCLC; DU-145 prostate; HL-60(TB) leukemia; HOP-62 NSCLC; KM12 colon; MDA-MB-231 breast; NCI-H226 lung; NCI-H460 lung; SF-295 CNS.
What all share (assay): growth of human tumour cells (NCI), 48 h

Molecules are shown by their SMILES.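 The compound was tested at five concentrations on cells cultured in 96-well plates, with a 48-hour exposure period. GI50 = concentration required for 50% inhibition of growth. TGI is the concentration that stops growth completely.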

In the case of `C[C@@H]1C[C@H](C)CN(S(=O)(=O)c2ccc3c(NO)c4ccc(S(=O)(=O)N5C[C@H](C)C[C@H](C)C5)cc4c(N=O)c3c2)C1`, the GI50 is 0.169 µM with 786-0 renal; 0.17 µM with A549 NSCLC; 0.115 µM with DU-145 prostate; 0.185 µM with HL-60(TB) leukemia; 0.171 µM in the assay on HOP-62 NSCLC; 0.0833 µM in the assay with KM12 colon. Moreover, the GI50 with MDA-MB-231 breast was 0.0738 µM; in the assay with NCI-H226 lung it was 0.157 µM; in the assay on NCI-H460 lung it was 0.0565 µM; in the assay on SF-295 CNS, 0.178 µM. Besides, the TGI in the assay with 786-0 renal stood at 0.309 µM; in the assay on A549 NSCLC, 0.327 µM; in the assay on DU-145 prostate it was 0.268 µM; in the assay on HL-60(TB) leukemia, 0.448 µM; with HOP-62 NSCLC, 0.324 µM; in the assay on KM12 colon, 0.257 µM. The TGI in the assay with MDA-MB-231 breast amounted to 0.234 µM; in the assay on NCI-H226 lung, 0.364 µM; in the assay on NCI-H460 lung, 0.222 µM; in the assay on SF-295 CNS, 0.338 µM.
For `S=c1snc2n1CCN2`, the GI50 in the assay on 786-0 renal is 91.7 µM; in the assay on A549 NSCLC, above 100 µM; in the assay on DU-145 prostate it was 91.3 µM; in the assay with HL-60(TB) leukemia, 48 µM; with HOP-62 NSCLC, above 100 µM; in the assay with KM12 colon it was above 100 µM. Moreover, the GI50 in the assay with MDA-MB-231 breast is 91.1 µM; in the assay with NCI-H226 lung it was 32.3 µM; in the assay with NCI-H460 lung, 54.9 µM; with SF-295 CNS, above 100 µM. Besides, the TGI in the assay with 786-0 renal, with A549 NSCLC, in the assay with DU-145 prostate, with HL-60(TB) leukemia, in the assay on HOP-62 NSCLC and in the assay on KM12 colon was above 100 µM each time. For the same compound, the TGI with MDA-MB-231 breast, with NCI-H226 lung, with NCI-H460 lung and in the assay with SF-295 CNS was above 100 µM each time.
With `CC[C@H](Nc1ncnc2nc[nH]c12)c1nc2cccc(F)c2c(=O)n1-c1ccccc1`, the GI50 was 4.29 µM in the assay with 786-0 renal; 31.2 µM with A549 NSCLC; 45.3 µM with DU-145 prostate; 4.72 µM in the assay on HL-60(TB) leukemia; above 100 µM with HOP-62 NSCLC; 43.7 µM in the assay with KM12 colon. For the same compound, the GI50 in the assay with MDA-MB-231 breast is 29.8 µM; in the assay on NCI-H226 lung, above 65.6 µM; with NCI-H460 lung, 36.3 µM; in the assay on SF-295 CNS it was 5.75 µM. Also, the TGI was above 100 µM in the assay on 786-0 renal; above 100 µM with A549 NSCLC; above 100 µM in the assay with DU-145 prostate; 56.5 µM with HL-60(TB) leukemia; above 100 µM in the assay with HOP-62 NSCLC; above 100 µM in the assay with KM12 colon. In addition, the TGI in the assay with MDA-MB-231 breast, in the assay with NCI-H226 lung, with NCI-H460 lung and with SF-295 CNS was above 100 µM in each case.
With `FC(F)(c1ccc2ncccc2c1)c1nnc2ccc(-c3ccncc3)nn12`, the GI50 with 786-0 renal was 69.3 µM; in the assay with A549 NSCLC, 76.8 µM; in the assay on DU-145 prostate, above 100 µM; in the assay on HL-60(TB) leukemia, above 100 µM; in the assay on HOP-62 NSCLC it was 62.7 µM; in the assay with KM12 colon, 69.7 µM. Further, the GI50 was 31 µM with MDA-MB-231 breast, 45.9 µM in the assay with NCI-H226 lung, above 100 µM in the assay with NCI-H460 lung and 2.21 µM with SF-295 CNS. The TGI with 786-0 renal, in the assay on A549 NSCLC, in the assay on DU-145 prostate, with HL-60(TB) leukemia, with HOP-62 NSCLC and with KM12 colon was above 100 µM each time. In addition, the TGI in the assay on MDA-MB-231 breast, with NCI-H226 lung, in the assay on NCI-H460 lung and with SF-295 CNS was above 100 µM throughout.
For `O=C(Nc1cc(C(F)(F)F)ccc1Cl)c1ccc(NC2=C(Cl)C(=O)N(Cc3ccccc3)C2=O)cc1`, the GI50 in the assay with 786-0 renal was 23.4 µM; in the assay with A549 NSCLC it was above 100 µM; in the assay on DU-145 prostate, 26.9 µM; in the assay with HL-60(TB) leukemia, 3.08 µM; in the assay with HOP-62 NSCLC, above 100 µM; in the assay with KM12 colon, 23.7 µM. For the same compound, the GI50 in the assay with MDA-MB-231 breast is 18.8 µM; with NCI-H226 lung, 13.9 µM; in the assay with NCI-H460 lung, 34.3 µM; with SF-295 CNS it was 40.1 µM. The TGI is above 100 µM in the assay with 786-0 renal; above 100 µM with A549 NSCLC; 80.9 µM in the assay with DU-145 prostate; 9.33 µM in the assay with HL-60(TB) leukemia; above 100 µM in the assay with HOP-62 NSCLC; 74.9 µM in the assay on KM12 colon. For the same compound, the TGI with MDA-MB-231 breast is 69.2 µM; with NCI-H226 lung, 65.5 µM; in the assay on NCI-H460 lung, above 100 µM; with SF-295 CNS, above 100 µM.
Take `COc1ccc(-c2ccncc2)cc1C(N)=O`: the GI50 with 786-0 renal, in the assay on A549 NSCLC, in the assay on DU-145 prostate, with HL-60(TB) leukemia, with HOP-62 NSCLC and with KM12 colon was above 25 µM each time. Moreover, the GI50 with MDA-MB-231 breast, in the assay on NCI-H226 lung, with NCI-H460 lung and in the assay on SF-295 CNS was above 25 µM throughout. Also, the TGI in the assay with 786-0 renal, in the assay with A549 NSCLC, with DU-145 prostate, in the assay with HL-60(TB) leukemia, with HOP-62 NSCLC and with KM12 colon was above 25 µM in each case. Moreover, the TGI in the assay on MDA-MB-231 breast, in the assay on NCI-H226 lung, with NCI-H460 lung and in the assay with SF-295 CNS was above 25 µM in each case.
Consider `NCCSSCCN`, for which the TGI in the assay with 786-0 renal, with A549 NSCLC, in the assay with DU-145 prostate, in the assay on HL-60(TB) leukemia, in the assay on HOP-62 NSCLC and in the assay with KM12 colon was above 100 µM in each case. For the same compound, the TGI in the assay with MDA-MB-231 breast, with NCI-H226 lung, with NCI-H460 lung and with SF-295 CNS was above 100 µM in each case.
On to `CN(C)CCNc1ccc(CO)c2sc3ccc(O)cc3c(=O)c12`, for which the TGI with 786-0 renal came to 9.37 µM; in the assay with A549 NSCLC it was 6.77 µM; in the assay with DU-145 prostate, 4.05 µM; in the assay with HL-60(TB) leukemia, 6.13 µM; in the assay on HOP-62 NSCLC it was 4.23 µM; in the assay with KM12 colon it was 7.3 µM. Besides, the TGI was 4.24 µM in the assay on MDA-MB-231 breast, 8.48 µM in the assay on NCI-H226 lung, 2.87 µM with NCI-H460 lung and 12.1 µM with SF-295 CNS.
In the case of `O=C1/C(=C/c2cccc(Br)c2)COc2ccc(O)cc21`, the GI50 in the assay with 786-0 renal was 2.08 µM; in the assay on A549 NSCLC, 4.12 µM; in the assay on DU-145 prostate it was 4.48 µM; in the assay with HL-60(TB) leukemia it was 1.88 µM; with HOP-62 NSCLC, 11.7 µM; in the assay on KM12 colon it was 1.75 µM. For the same compound, the GI50 is 2.88 µM with MDA-MB-231 breast, 4.92 µM in the assay on NCI-H226 lung, 3.69 µM in the assay on NCI-H460 lung and 10.4 µM with SF-295 CNS. Also, the TGI in the assay with 786-0 renal stood at 5.43 µM; with A549 NSCLC, 16.5 µM; with DU-145 prostate, 16.5 µM; in the assay with HL-60(TB) leukemia it was 5.75 µM; in the assay on HOP-62 NSCLC, 24.3 µM; in the assay with KM12 colon it was 3.74 µM. In addition, the TGI was 9.38 µM with MDA-MB-231 breast, 26 µM in the assay with NCI-H226 lung, 13.2 µM with NCI-H460 lung and 23.6 µM with SF-295 CNS.
On to `CCCCCCCCCCCCCCCCCC1=NC(C)(C)CN1CC(C)O` (stereo not given), for which the GI50 with 786-0 renal was 14.9 µM; in the assay on A549 NSCLC it was 3 µM; with DU-145 prostate, 3.66 µM; with HL-60(TB) leukemia it was 4.82 µM; with HOP-62 NSCLC, 5.69 µM; in the assay on KM12 colon, 6.18 µM. The GI50 was 2.02 µM in the assay on MDA-MB-231 breast, 18.8 µM in the assay with NCI-H226 lung, 2.78 µM in the assay on NCI-H460 lung and 13 µM in the assay on SF-295 CNS. Also, the TGI with 786-0 renal amounted to 31.7 µM; in the assay on A549 NSCLC, 7.12 µM; in the assay on DU-145 prostate it was 13.1 µM; in the assay on HL-60(TB) leukemia, 24.8 µM; in the assay with HOP-62 NSCLC, 26 µM; with KM12 colon, 19.5 µM. Also, the TGI in the assay on MDA-MB-231 breast was 4.37 µM; with NCI-H226 lung it was 38.5 µM; in the assay on NCI-H460 lung, 7.06 µM; in the assay on SF-295 CNS, 31.4 µM.
Consider `[C](#Cc1ccccc1)[Hg][C]#Cc1ccccc1`, for which the GI50 is 30.6 µM with 786-0 renal; 50.1 µM in the assay on A549 NSCLC; 48.2 µM in the assay with DU-145 prostate; 27.7 µM in the assay with HL-60(TB) leukemia; above 100 µM in the assay on HOP-62 NSCLC; 94.1 µM with KM12 colon. For the same compound, the GI50 is 20.8 µM in the assay on MDA-MB-231 breast, 28.1 µM in the assay with NCI-H226 lung, 86.2 µM in the assay with NCI-H460 lung and above 100 µM with SF-295 CNS. The TGI with 786-0 renal, in the assay with A549 NSCLC, in the assay with DU-145 prostate, in the assay with HL-60(TB) leukemia, in the assay on HOP-62 NSCLC and with KM12 colon was above 100 µM in each case. Further, the TGI in the assay with MDA-MB-231 breast was 44.8 µM; in the assay on NCI-H226 lung it was 63.2 µM; with NCI-H460 lung, above 100 µM; in the assay on SF-295 CNS, above 100 µM.
For the compound `COc1cc(OC)c(C(=O)/C=C/c2cc3c(cc2OCc2ccccc2)OC(C)(C)CC3)cc1CC=C(C)C`, the GI50 in the assay with 786-0 renal is 9.33 µM; with A549 NSCLC, 8.92 µM; in the assay on DU-145 prostate it was 5.95 µM; in the assay on HL-60(TB) leukemia, 5.43 µM; in the assay with HOP-62 NSCLC it was 6.78 µM; in the assay with KM12 colon, 3.85 µM. The GI50 was 10.1 µM with MDA-MB-231 breast, 6.61 µM in the assay with NCI-H226 lung, 4.38 µM in the assay on NCI-H460 lung and 4.56 µM with SF-295 CNS. Also, the TGI is above 25 µM in the assay on 786-0 renal; above 25 µM in the assay with A549 NSCLC; above 25 µM with DU-145 prostate; 17.1 µM in the assay on HL-60(TB) leukemia; 13.5 µM in the assay on HOP-62 NSCLC; 8.63 µM with KM12 colon. In addition, the TGI is above 25 µM in the assay with MDA-MB-231 breast, 22.1 µM with NCI-H226 lung, 11.8 µM with NCI-H460 lung and 15.8 µM in the assay on SF-295 CNS.

The record behind these values is PubChem BioAssay (NCI).
